# Results from patent US11767310B2, “Nicotinamide RIPK1 inhibitors” (AbbVie Inc., priority 2021, dated 2023).
# Marks after values point to notes of the source that are not given here.
# Key:
# RIPK1 = RIPK1 (Homo sapiens (Human), UniProt Q13546); assay: RIPK1 Binding Assay; settings: displacement of fluorescent probe, TR-FRET
# Description: Compounds were tested for their ability to displace a fluorescent probe from recombinant human RIPK1.
# Recombinant human RIPK1 (1-375) was prepared as described in Harris et al., ACS Med. Chem. Letters (2013) 4:1238-1243 (Supplementary Information), with the following exceptions: (i) instead of using the gene sequence from NM_003804.3, the gene was synthesized with codon optimization for BEV expression system, and (ii) the gene was cloned into the vector pFastBac1, not pDEST8.
# A fluorescent probe containing an Oregon green fluorophore was synthesized from a compound known to bind to RIPK1.
# The assay was performed in a buffer containing 50 mM N-2-Hydroxyethylpiperazine-N′-2-ethanesulfonic acid (HEPES) (pH 7.5), 10 mM MgCl2, 1 mM ethylene diamine tetraacetic acid (EDTA), and 0.01% BRIJ-35 (Polyoxyethylene (23) lauryl ether). Test compounds were solvated in dimethyl sulfoxide (DMSO) at final concentrations 4-fold serially diluted from 100 to 0.000095 uM in technical duplicates into an empty 384 well plate. Recombinant RIPK1 (final concentration of 2.5 nM) was added to the wells and incubated with test compound for 1 hour at room temperature. A solution containing the fluorescent probe (final concentration 5 nM) and an LanthaScreen Tb-anti-GST antibody (Thermofisher Scientific; final concentration of 5 nM) was then added to each well, with the Tb-anti-GST antibody binding to the GST portion of the recombinant RIPK1 and providing the corresponding FRET pair to the fluorescent probe. The plate was incubated for 1 hour at room temperature and read on an Envision plate reader using a time resolved FRET protocol. Data was normalized and analyzed using Studies from Dotmatics.
# [1] = Prodrug bioconversion in intestinal S9 cell fractions; format: in vitro ADME
# Description: (§1) Phosphatase enzymes are […] expressed with unique tissue specific isoforms and are key catalysts in the conversion of phosphate-containing prodrugs. To determine if exemplary phosphate prodrug compounds of the invention are enzymatically converted to the parent molecule across relevant species, the prodrug compounds were incubated with intestinal S9 cell fractions obtained from mouse, rat, dog, monkey, and human.
# […] Incubations were conducted in the absence and presence of 1 mM sodium orthovanadate, a phosphatase inhibitor. Prodrug depletion and parent formation were monitored by LC-MS/MS and normalized to internal standard as the analyte peak area ratio.
# [2] = as above; format: in vitro ADME; settings: 0.25 mg/mL
# Description: as §1
# Phosphate prodrugs were incubated (1 μM) for up to 2 hours in Tris-Cl buffer (pH 7.4) containing 3 mM magnesium chloride, intestinal S9 protein ([…] (ms, rat, hu, Table F) from mouse, rat, dog, monkey or human. Incubations were conducted in the absence and presence of 1 mM sodium orthovanadate, a phosphatase inhibitor. Prodrug depletion and parent formation were monitored by LC-MS/MS and normalized to internal standard as the analyte peak area ratio.
# RIPK1, sequence (Q13546 1-375): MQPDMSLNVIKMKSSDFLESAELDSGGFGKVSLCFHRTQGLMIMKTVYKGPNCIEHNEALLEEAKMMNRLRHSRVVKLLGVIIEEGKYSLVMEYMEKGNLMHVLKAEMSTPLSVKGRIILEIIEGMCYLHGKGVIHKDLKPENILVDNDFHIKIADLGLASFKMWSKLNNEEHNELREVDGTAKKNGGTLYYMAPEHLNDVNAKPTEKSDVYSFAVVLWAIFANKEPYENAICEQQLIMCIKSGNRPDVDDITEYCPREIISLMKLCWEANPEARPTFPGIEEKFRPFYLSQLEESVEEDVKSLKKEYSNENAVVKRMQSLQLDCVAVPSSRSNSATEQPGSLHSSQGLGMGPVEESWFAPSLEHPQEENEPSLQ
structure (smiles),measurement,setting,value
"CN(C[C@@H](O)Cc1ccccc1)C(=O)c1cncc(C#Cc2cnn(C(F)F)c2)c1 [Example 2, (S)-5-((1-(difluoromethyl)-1H-pyrazol-4-yl)ethynyl)-N-(2-hydroxy-3-phenylpropyl)-N-methylnicotinamide]",IC50,RIPK1,4 nM
"CN(C[C@H](Cc1ccccc1)OP(=O)(O)O)C(=O)c1cncc(C#Cc2cnn(C(F)F)c2)c1 [Example 19, (S)-1-(5-((1-(difluoromethyl)-1H-pyrazol-4-yl)ethynyl)-N-methylnicotinamido)-3-phenylpropan-2-yl dihydrogen phosphate]",Clint (prodrug disappearance),"[1]; Human, 0.01 mg/mL S9 protein, Table F",1608.5 μL/min/mg intestinal S9 protein
same,Clint (prodrug disappearance),"[1]; Human, 0.25 mg/mL S9 protein, Table F",296 μL/min/mg intestinal S9 protein
same,Clint (prodrug disappearance),"[1]; Human, 0.25 mg/mL, Experiment 1",246 μL/min/mg intestinal S9 protein
same,Clint (prodrug disappearance),"[1]; Human, 0.25 mg/mL, Experiment 2",228 μL/min/mg intestinal S9 protein
same,Clint (prodrug disappearance),"[1]; Human, 0.25 mg/mL, Experiment 3",235 μL/min/mg intestinal S9 protein
same,Clint (prodrug disappearance),"[1]; Human, 0.25 mg/mL, Mean of 3 experiments",236.3 μL/min/mg intestinal S9 protein
same,Clint (prodrug disappearance),"[1]; Mouse, 0.01 mg/mL S9 protein, Table F",116.8 μL/min/mg intestinal S9 protein
same,Clint (prodrug disappearance),"[1]; Mouse, 0.25 mg/mL S9 protein, Table F",54.7 μL/min/mg intestinal S9 protein
same,Clint (prodrug disappearance),"[1]; Mouse, 0.25 mg/mL, Experiment 1",43.1 μL/min/mg intestinal S9 protein
same,Clint (prodrug disappearance),"[1]; Mouse, 0.25 mg/mL, Experiment 2",74.6 μL/min/mg intestinal S9 protein
same,Clint (prodrug disappearance),"[1]; Mouse, 0.25 mg/mL, Experiment 3",42.2 μL/min/mg intestinal S9 protein
same,Clint (prodrug disappearance),"[1]; Mouse, 0.25 mg/mL, Mean of 3 experiments",53.3 μL/min/mg intestinal S9 protein
same,Clint (prodrug disappearance),"[1]; Rat, 0.01 mg/mL S9 protein, Table F",<137** μL/min/mg intestinal S9 protein
same,Clint (prodrug disappearance),"[1]; Rat, 0.25 mg/mL S9 protein, Table F",42.4 μL/min/mg intestinal S9 protein
same,Clint (prodrug disappearance),"[1]; Rat, 0.25 mg/mL, Experiment 1",25.6 μL/min/mg intestinal S9 protein
same,Clint (prodrug disappearance),"[1]; Rat, 0.25 mg/mL, Experiment 2",16.9 μL/min/mg intestinal S9 protein
same,Clint (prodrug disappearance),"[1]; Rat, 0.25 mg/mL, Experiment 3",50.6 μL/min/mg intestinal S9 protein
same,Clint (prodrug disappearance),"[1]; Rat, 0.25 mg/mL, Mean of 3 experiments",31 μL/min/mg intestinal S9 protein
same,Clint (prodrug disappearance),"[2]; Dog, Experiment 1",331 μL/min/mg intestinal S9 protein
same,Clint (prodrug disappearance),"[2]; Dog, Experiment 2",387 μL/min/mg intestinal S9 protein
same,Clint (prodrug disappearance),"[2]; Dog, Experiment 3",397 μL/min/mg intestinal S9 protein
same,Clint (prodrug disappearance),"[2]; Dog, Mean of 3 experiments",371.7 μL/min/mg intestinal S9 protein
same,Clint (prodrug disappearance),"[2]; Monkey, Experiment 1",87.5 μL/min/mg intestinal S9 protein
same,Clint (prodrug disappearance),"[2]; Monkey, Experiment 2",60.3 μL/min/mg intestinal S9 protein
same,Clint (prodrug disappearance),"[2]; Monkey, Experiment 3",60.7 μL/min/mg intestinal S9 protein
same,Clint (prodrug disappearance),"[2]; Monkey, Mean of 3 experiments",69.5 μL/min/mg intestinal S9 protein
